Active and inactive are the calls of the source. No cut-off for these calls is given here.

Data set [1] addresses T1, Kappa-type opioid receptor (Mus musculus, UniProt P33534). In words: Displacement of [125I]-IBNtxA from mouse kappa opioid receptor-1 expressed in CHO cell membranes incubated for 90 mins. A general note: Displacement assays read how much labelled ligand stays bound in the presence of the test substance.
Data set [2] concerns the target T2, Delta-type opioid receptor (Mus musculus, UniProt P32300). In words: Displacement of [125I]-IBNtxA from mouse delta opioid receptor-1 expressed in CHO cell membranes incubated for 90 mins.
For data set [3], the target named is T3, Mu-type opioid receptor (Mus musculus, UniProt P42866). In words: Displacement of [125I]-IBNtxA from mouse mu opioid receptor-1 expressed in CHO cell membranes incubated for 90 mins.
T3 sequence (P42866 whole entry): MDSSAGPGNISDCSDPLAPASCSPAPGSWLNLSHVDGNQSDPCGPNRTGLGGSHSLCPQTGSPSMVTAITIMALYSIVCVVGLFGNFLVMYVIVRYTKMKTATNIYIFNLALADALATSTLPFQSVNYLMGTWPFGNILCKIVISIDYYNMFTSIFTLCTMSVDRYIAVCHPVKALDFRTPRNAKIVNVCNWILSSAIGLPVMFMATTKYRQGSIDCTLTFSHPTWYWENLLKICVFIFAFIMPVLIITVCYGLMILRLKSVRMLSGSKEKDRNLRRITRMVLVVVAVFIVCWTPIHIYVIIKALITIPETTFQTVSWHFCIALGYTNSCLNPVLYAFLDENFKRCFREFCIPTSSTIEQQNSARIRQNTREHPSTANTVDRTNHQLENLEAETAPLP
Data set [4] relates to Mus musculus. In words: Antinociceptive activity in sc dosed CD-1 mouse assessed as increase in reaction time measured 15 mins post dose by radiant heat tail flick assay. The following applies: CD-1, sc, 0.25 h. The class given is functional.
The target in data set [5] is T3, Mu-type opioid receptor. In words: Agonist activity at mouse mu opioid receptor-1 expressed in CHO cell membranes assessed as [35S]GTPgammaS binding incubated for 60 mins by scintillation spectroscopic analysis. The class given is functional. On the technique in general: Binding of GTPγS marks nucleotide exchange on a G protein.
The target in data set [6] is Mu-type opioid receptor (Mus musculus) (UniProt P42866). In words: Agonist activity at mouse mu opioid receptor-1 expressed in CHO cell membranes assessed as [35S]GTPgammaS binding incubated for 60 mins by scintillation spectroscopic analysis relative to DAMGO. The class given is functional.
Chain of Mu-type opioid receptor (Mus musculus) (P42866 whole entry): as above
The target in data set [7] is T1, Kappa-type opioid receptor. In words: Antagonist activity at mouse kappa opioid receptor-1 expressed in CHO cell membranes assessed as inhibition of U50,488H-induced [35S]GTPgammaS binding incubated for 60 mins by scintillation spectroscopic analysis. The class given is functional.
For data set [8], the target named is T2, Delta-type opioid receptor. In words: Antagonist activity at mouse delta opioid receptor-1 expressed in CHO cell membranes assessed as inhibition of DPDPE-induced [35S]GTPgammaS binding incubated for 60 mins by scintillation spectroscopic analysis. The class given is functional.
Data set [9] concerns the target T4, Mu-type opioid receptor (Homo sapiens, UniProt P35372). In words: Activation of mu opioid receptor-1 (unknown origin) expressed in CHO cells assessed as beta-arrestin-2 recruitment at 10 uM after 90 mins by beta-galactosidase complementation assay. The class given is cell-based. The following applies: 1.5 h. (In general: Activated receptors often draw arrestin, which recruitment assays turn into a signal.)

The target in data set [10] is T2, Delta-type opioid receptor. In words: Agonist activity at mouse delta opioid receptor-1 expressed in CHO cell membranes assessed as [35S]GTPgammaS binding incubated for 60 mins by scintillation spectroscopic analysis. The class given is functional.
Data set [11] addresses Delta-type opioid receptor (Mus musculus) (UniProt P32300). In words: Agonist activity at mouse delta opioid receptor-1 expressed in CHO cell membranes assessed as [35S]GTPgammaS binding incubated for 60 mins by scintillation spectroscopic analysis relative to DPDPE. The class given is functional.
In data set [12] the test system is Mus musculus. In words: Antinociceptive activity in CD-1 mouse assessed as increase in reaction time at 10 ug, icv administered on day 6 after DOR1-exon3 antisense oligodeoxynucleotide injection on day 1, 3 and 5 by radiant heat tail flick assay. The class given is functional, organism-based.
For data set [13], the system named is Mus musculus. In words: Antinociceptive activity in sc dosed CD-1 mouse assessed as increase in reaction time administered twice daily at dosing intervals of 12 hrs for 5 days by radiant heat tail flick assay. The following applies: CD-1, sc. The class given is functional.
For data set [14], the species on record is Mus musculus. In words: animal or person. Conditions: CD-1, sc, 0.5 h.
Description: Antinociceptive activity in sc dosed CD-1 mouse assessed as increase in latency latency to respond with hind paw lick or shake/flutter measured 30 mins post dose by hot plate test
The test system of data set [15] is Mus musculus. In words: Antinociceptive activity in CD-1 mouse assessed as increase in reaction time at 0.75 ug, icv administered on day 6 after MOR1-exon1 antisense oligodeoxynucleotide injection on day 1, 3 and 5 by radiant heat tail flick assay. The class given is functional, organism-based.
Data set [16] is filed under the species Mus musculus. In words: animal or person. Conditions: CD-1, sc, 0.5 h. This is another data set of the same source.
Description: Antinociceptive activity in sc dosed CD-1 mouse assessed as increase in reaction time measured 30 mins post dose by radiant heat tail flick assay
Data set [17] addresses T4, Mu-type opioid receptor. In words: Inhibition of DAMGO-induced beta-arrestin-2 recruitment at mu opioid receptor-1 (unknown origin) expressed in CHO cells preincubated for 30 mins followed by DAMGO addition measured after 90 mins by beta-galactosidase complementation assay. The class given is cell-based.

T1 sequence (P33534 whole entry): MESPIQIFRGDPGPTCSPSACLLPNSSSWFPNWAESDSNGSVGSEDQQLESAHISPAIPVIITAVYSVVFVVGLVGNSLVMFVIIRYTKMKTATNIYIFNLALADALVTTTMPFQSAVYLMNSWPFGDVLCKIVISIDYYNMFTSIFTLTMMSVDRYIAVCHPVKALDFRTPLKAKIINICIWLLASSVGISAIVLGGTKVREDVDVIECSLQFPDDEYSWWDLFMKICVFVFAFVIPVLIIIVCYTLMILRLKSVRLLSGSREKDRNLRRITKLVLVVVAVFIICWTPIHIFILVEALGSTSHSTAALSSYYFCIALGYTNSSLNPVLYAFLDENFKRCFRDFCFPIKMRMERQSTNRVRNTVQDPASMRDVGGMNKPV
T2 sequence (P32300 whole entry): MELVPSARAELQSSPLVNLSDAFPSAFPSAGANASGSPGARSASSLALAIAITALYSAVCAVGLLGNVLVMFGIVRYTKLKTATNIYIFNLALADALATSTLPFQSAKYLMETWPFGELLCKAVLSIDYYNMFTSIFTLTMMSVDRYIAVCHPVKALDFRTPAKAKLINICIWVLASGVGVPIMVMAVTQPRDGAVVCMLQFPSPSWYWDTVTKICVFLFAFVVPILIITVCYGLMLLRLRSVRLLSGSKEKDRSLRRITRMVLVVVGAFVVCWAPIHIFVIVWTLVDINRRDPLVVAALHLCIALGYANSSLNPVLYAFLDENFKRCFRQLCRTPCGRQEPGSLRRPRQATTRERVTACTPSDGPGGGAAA
T4 sequence (P35372 whole entry): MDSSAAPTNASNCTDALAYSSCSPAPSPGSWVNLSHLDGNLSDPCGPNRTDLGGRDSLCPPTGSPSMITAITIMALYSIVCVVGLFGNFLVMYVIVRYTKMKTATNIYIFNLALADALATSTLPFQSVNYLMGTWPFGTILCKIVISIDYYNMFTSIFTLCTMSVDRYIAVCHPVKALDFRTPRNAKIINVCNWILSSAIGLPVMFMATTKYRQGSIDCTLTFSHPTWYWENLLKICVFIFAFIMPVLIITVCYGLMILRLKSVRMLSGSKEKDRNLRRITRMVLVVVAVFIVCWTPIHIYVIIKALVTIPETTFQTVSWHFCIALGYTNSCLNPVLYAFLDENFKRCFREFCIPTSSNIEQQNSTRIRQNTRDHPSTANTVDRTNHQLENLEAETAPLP
Chain of Delta-type opioid receptor (Mus musculus) (P32300 whole entry): as the sequence (P32300 whole entry) above

Take `CC[C@@H]1CN2CC[C@@]3(C(=O)c4c(OC)cccc4N3C)[C@@H]2C[C@@H]1/C(=C\OC)C(=O)OC`: the Ki is greater than 1000 nM in [1], greater than 1000 nM in [2] and 375 nM at Mu-type opioid receptor [3].
Regarding `CC[C@@H]1CN2CC[C@]3(Nc4cccc(OC(C)=O)c4C3=O)[C@@H]2C[C@@H]1/C(=C\OC)C(=O)OC`, the Ki amounted to 31 nM in data set [1], 20 nM in data set [2] and 2.5 nM on Mu-type opioid receptor [3]. In the data set with Mus musculus [4], the ED50 is 0.38 mg/kg. The EC50 on Mu-type opioid receptor [5] turned out to be 3.9 nM. Further, the Emax in data set [6] came to 120%.
As to `CC[C@@H]1CN2CC[C@]3(Nc4ccccc4C3=O)[C@@H]2C[C@@H]1/C(=C\OC)C(=O)OC`, the results for the IC50 in data set [7] and in [8] were 252 nM and 193 nM, respectively. For the same compound, the Ki was determined as 19 nM in [1], 2.9 nM in data set [2] and 0.46 nM at Mu-type opioid receptor [3]. For the same compound, the ED50 with Mus musculus [4] was 0.24 mg/kg. Also, the Activity result on Mu-type opioid receptor [9] is “Not Active”. The EC50 on Mu-type opioid receptor [5] was found to be 1.4 nM. Also, the maximal response (Emax) in data set [6] turned out to be 116%.
`CC[C@@H]1CN2CC[C@]3(Nc4cccc(O)c4C3=O)[C@@H]2C[C@@H]1/C(=C\OC)C(=O)OC`: the figures for the Ki (in data set [1]; in [2]; at Mu-type opioid receptor [3]) were 170 nM, 6.1 nM and 1.4 nM, respectively. The ED50 in the data set with Mus musculus [4] was 0.18 mg/kg. In addition, the IC50 in [8] is 293 nM. Besides, on Mu-type opioid receptor [9], the Activity result is “Not Active”. Further, at Mu-type opioid receptor [5], the EC50 was 2 nM. Besides, the Emax in data set [6] came out at 124%.
In the case of `CC[C@@H]1CN2CC[C@]3(Nc4cccc(C#N)c4C3=O)[C@@H]2C[C@@H]1/C(=C\OC)C(=O)OC`, the IC50 is 721 nM in data set [7] and 73 nM in data set [8]. The values for the Ki (in [1]; in data set [2]; at Mu-type opioid receptor [3]) were 47 nM, 2.4 nM and 0.5 nM, respectively. For the same compound, the ED50 with Mus musculus [4] came to 0.32 mg/kg. For the same compound, the Activity result on Mu-type opioid receptor [9] is given as “Not Active”. Moreover, at Mu-type opioid receptor [5], the EC50 was found to be 0.7 nM. The maximal response (Emax) in data set [6] stood at 122%.
In the case of `C[C@@H](NC(=O)[C@@H](N)Cc1ccc(O)cc1)C(=O)NCC(=O)N(C)[C@@H](Cc1ccccc1)C(=O)NCCO` [DAMGO], on Mu-type opioid receptor [9], the outcome was Active.
For `CC[C@@H]1CN2CC[C@]3(Nc4cccc(-c5ccccc5)c4C3=O)[C@@H]2C[C@@H]1/C(=C\OC)C(=O)OC`, the IC50 in data set [7] is 171 nM. Moreover, the figures for the EC50 (in data set [10]; on Mu-type opioid receptor [5]) were 0.83 nM and 1.4 nM, respectively. The Ki in data set [1] worked out at 51 nM; in data set [2], 0.8 nM; at Mu-type opioid receptor [3], 0.91 nM. Further, the Emax in data set [11] was determined as 89%; in data set [6] it was 123%. Besides, the ED50 in the data set with Mus musculus [4] stood at 1 mg/kg. Further, the Activity result on Mu-type opioid receptor [9] was “Not Active”.
Consider `CC[C@@H]1CN2CCc3c([nH]c4cccc(OC)c34)[C@@H]2C[C@@H]1/C(=C\OC)C(=O)OC`, for which the ED50 in the data set with Mus musculus [4] was 166 mg/kg. Besides, on Mu-type opioid receptor [9], the Activity entry is given as “Not Active”. Besides, the Emax in data set [6] stood at 65%.
Take `CC1(C)SSC(C)(C)[C@@H](NC(=O)[C@@H](N)Cc2ccc(O)cc2)C(=O)NCC(=O)N[C@@H](Cc2ccccc2)C(=O)N[C@H]1C(=O)O`: the outcome in the data set with Mus musculus [12] was inactive.
For `CN1CC[C@]23c4c5ccc(O)c4O[C@H]2[C@@H](O)C=C[C@H]3[C@H]1C5` [MORPHINE], the results for the ED50 with Mus musculus [13], in the data set listed under Mus musculus [14] and in the data set listed under Mus musculus [16] were 12.1 mg/kg, 1.7 mg/kg and 2 to 2.5 mg/kg, respectively. Besides, the outcome with Mus musculus [15] was inactive.
Consider `CC[C@@H]1CN2CC[C@]3(Nc4cccc(-c5ccoc5)c4C3=O)[C@@H]2C[C@@H]1/C(=C\OC)C(=O)OC`, for which the IC50 was 202 nM in data set [7] and 39 nM in data set [8]. In addition, the Ki in data set [1] came out at 39 nM; in data set [2] it was 1.5 nM; at Mu-type opioid receptor [3], 0.94 nM. The ED50 in the data set with Mus musculus [4] stood at 1.1 mg/kg. For the same compound, at Mu-type opioid receptor [9], the Activity entry was “Not Active”. For the same compound, the EC50 at Mu-type opioid receptor [5] was 1.5 nM. In addition, in data set [6], the Emax came out at 100%.
Consider `CC[C@@H]1CN2CC[C@@]3(C(=O)c4c(OC)cccc4N3Cc3ccccc3)[C@@H]2C[C@@H]1/C(=C\OC)C(=O)OC`, for which the figures for the Ki (in [1]; in [2]; on Mu-type opioid receptor [3]) were 136 nM, 258 nM and 249 nM, respectively.
As for `CC[C@@H]1CN2CC[C@@]3(O)C(=Nc4cccc(OC)c43)[C@@H]2C[C@@H]1/C(=C\OC)C(=O)OC`, the IC50 in data set [7] stood at 2520 nM. For the same compound, the inhibition entry at Mu-type opioid receptor [17] is “Dose-dependent effect”. The ED50 in the data set on Mus musculus [4] was 0.46 mg/kg. On Mu-type opioid receptor [3], this compound yielded a Ki of 37 nM. At Mu-type opioid receptor [9], the Activity result is “Not Active”. At Mu-type opioid receptor [5], the EC50 came out at 53 nM. The Emax in data set [6] is 77%.

By Ki is commonly meant a measure of affinity in units of concentration, obtained from inhibition or displacement. A high value points to weaker binding. What is called ED50 is the midpoint of the dose-response relation. One may read the EC50 as the concentration giving half of the maximal effect. The Emax is the maximal effect, on the per cent scale that the assay sets. By IC50 is commonly meant the concentration that gives 50% inhibition.

The values above are taken from ChEMBL document CHEMBL4428076 (J Med Chem, 2016).
